Reference: ChEMBL document CHEMBL1201862, “PubChem BioAssay data set” (2004)
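Compound exposure: 48 hours, 5 concentrations, 96-well plates. GI50 is the concentration that inhibits growth by half.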 Activity calls are given as the source filed them. Cut-off read from the data, not from the text of the source: active = GI50 up to about 1.1 µM and inactive = higher.

Key:
Assay in all cases: DTP human tumour cell line panel, 48 h
OVCAR-3 = test system: OVCAR-3
HT-29 = test system: HT-29
SW-620 = test system: SW-620
HCC 2998 = test system: HCC 2998
SF-268 = test system: SF-268
SR = test system: SR
DLD-1 = test system: DLD-1
NCI-H226 = test system: NCI-H226
SN12C = test system: SN12C
786-0 = test system: 786-0
MDA-MB-231 = test system: MDA-MB-231
BT-549 = test system: BT-549
NCI/ADR-RES = test system: NCI/ADR-RES
MDA-N = test system: MDA-N
DU-145 = test system: DU-145
T47D = test system: T47D
MCF7 = test system: MCF7
Hs-578T = test system: Hs-578T
PC-3 = test system: PC-3
MDA-MB-435 = test system: MDA-MB-435

Measured: GI50

O=C(CCC1C(=O)NC(=S)NC1=O)c1ccc2ccccc2c1
inactive: OVCAR-3 > 100 µM | HT-29 > 100 µM | SW-620 > 100 µM | HCC 2998 > 100 µM | SF-268 > 100 µM | SR > 100 µM | DLD-1 > 100 µM | NCI-H226 > 100 µM | SN12C > 100 µM | 786-0 > 100 µM

Nc1ccc2c(c1)CN1C(=O)c3ccccc3C1=N2 [DANIQUIDONE]
inactive: MDA-MB-231 31.6 µM | BT-549 > 93.3 µM | OVCAR-3 40.9 µM | NCI/ADR-RES 66.1 µM | HT-29 69.3 µM | SW-620 24.5 µM | MDA-N 49.4 µM | HCC 2998 63 µM | SF-268 29 µM | SR 18.7 µM | DU-145 27.4 µM | T47D 52.5 µM | DLD-1 51.1 µM | MCF7 39.5 µM | NCI-H226 45.9 µM | Hs-578T 21.3 µM | PC-3 58.1 µM | SN12C 33.3 µM | 786-0 28.4 µM | MDA-MB-435 29.2 µM

c1ccc2c(c1)SP1Sc3ccccc3P21 (stereo not given)
inactive: OVCAR-3 > 100 µM | NCI/ADR-RES > 100 µM | HT-29 74.6 µM | SW-620 > 100 µM | HCC 2998 90.6 µM | SF-268 > 95.3 µM | DLD-1 > 92.5 µM | MCF7 > 100 µM | NCI-H226 > 45.7 µM | SN12C 63.4 µM

CC1(C)OC2CC(=O)OCC23C1CC(=O)C1(C)C3CCC2(C)C(c3ccoc3)OC(=O)C3OC321 (stereo not given)
inactive: OVCAR-3 > 125 µM | NCI/ADR-RES > 125 µM | HT-29 > 125 µM | SW-620 > 125 µM | HCC 2998 > 125 µM | SF-268 > 125 µM | DLD-1 > 125 µM | MCF7 > 70.3 µM | NCI-H226 > 125 µM | SN12C > 39.5 µM
